What all share (test): NCI anticancer screen, dose series, 48 h
The test system of test [1] is HT29 colon.
The subject of test [2] is RXF 393 renal.
Test [3] has as its system UACC-257 melanoma.
Test [4] deals with HCT-116 colon.
Test [5] deals with A498 renal.
Test [6] relates to TK-10 renal.
The subject of test [7] is SK-MEL-5 melanoma.
Test [8] has as its system MDA-MB-231 breast.
The subject of test [9] is RPMI-8226 leukemia.
Test [10] deals with SF-295 CNS.
Test [11] concerns NCI-H23 lung.
In test [12] the test system is UACC-62 melanoma.
Test [13] relates to SW-620 colon.
Test [14] concerns 786-0 renal.

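1) Cells in 96-well plates. 2) Compound, 48 h, 5 concentrations. 3) Linear interpolation between surrounding doses. 4) Unreached endpoint = highest concentration. TGI marks complete inhibition of growth.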 Where only a bound is given, the exact number is not on record here.

As to `COC(=O)NCCc1[nH]nc2c1C(=O)C=C(Nc1ccccc1)C2=O`, the TGI in [1] was > 100 µM; in [2] it was > 100 µM; in test [3] it was 32.3 µM; in test [4], 54.9 µM; in [5], > 100 µM; in test [6], > 100 µM. Besides, the TGI was 32.2 µM in test [7]; 87.7 µM in [8]; > 100 µM in [9]; > 100 µM in test [10]; 31.4 µM in test [11]; 34.8 µM in test [12]. The TGI in test [13] and in test [14] was > 100 µM throughout.
On to `OCCN(CCO)c1ccc2c(C(F)(F)F)cc(C(F)(F)F)nc2n1`, for which the TGI in [1], in test [2], in test [3], in test [4], in test [5] and in test [6] was > 100 µM each time. The TGI in test [7], in [8], in test [9], in test [10], in test [11] and in test [12] was > 100 µM throughout. The TGI in test [13] and in test [14] was > 100 µM throughout.
For `CC(=O)Oc1ccc2c(c1)c1c(=O)oc(N(C)C)nc1n2Cc1ccccc1`, the TGI in [1] is > 100 µM; in [2], > 100 µM; in [3] it was > 100 µM; in [4], > 100 µM; in [5], > 83 µM; in [6], > 100 µM. For the same molecule, the TGI in test [7], in test [8], in [9], in test [10], in [11] and in test [12] was > 100 µM throughout. In addition, the TGI in test [13] and in test [14] was > 100 µM throughout.
Regarding `NNC(=O)c1c(Cl)c(Cl)c(Cl)c(Cl)c1-c1nc2ccccc2[nH]1`, the TGI in test [1] turned out to be 61.8 µM; in [2], 21.9 µM; in test [3], 28.1 µM; in [4] it was 32.6 µM; in test [5], 49.9 µM; in [6] it was 63.2 µM. Further, the TGI in test [7] was 29.9 µM; in test [8] it was > 100 µM; in test [9] it was > 100 µM; in test [10] it was 24 µM; in test [11], 59.5 µM; in test [12] it was 24.7 µM. Moreover, the results for the TGI in test [13] and in test [14] were 67.6 µM and 55.8 µM, respectively.
For `c1ccc(N=C2SC(=NNc3ccccc3)SC2=Nc2ccccc2)cc1`, the TGI in [1], in [2], in test [3], in [4], in [5] and in test [6] was > 100 µM in each case. Besides, the TGI in [7], in test [8], in test [9], in [10], in test [11] and in test [12] was > 100 µM throughout. Besides, the TGI in test [13] and in [14] was > 100 µM in each case.
With `COc1cc(N=NN(C)C)c(C(C)c2c3cc(OC)c(OC)cc3cc[n+]2C)cc1OC` (stereo not given), the TGI in test [1] is > 100 µM; in test [2], > 100 µM; in [3] it was > 100 µM; in test [4] it was > 100 µM; in test [5], > 100 µM; in test [6], 97.5 µM. Also, the TGI was 56.8 µM in test [7]; 77 µM in test [8]; 70.4 µM in test [9]; > 100 µM in [10]; > 100 µM in test [11]; 59.5 µM in [12]. The TGI in [13] and in test [14] was > 100 µM throughout.
On to `Cc1ccc2c(c1)NC(=O)CCSSCCC(=O)N2`, for which the TGI in test [1], in [2], in test [3], in [4], in test [5] and in [6] was > 100 µM throughout. Moreover, the TGI in [7], in test [8], in test [9], in [10], in [11] and in [12] was > 100 µM in each case. Further, the TGI in test [13] and in test [14] was > 100 µM throughout.
Consider `NC1C/C(=N\O)c2c(I)sc(I)c21` (stereo not given), for which the TGI in test [1] was 48.8 µM; in test [2] it was 35.8 µM; in test [3] it was 31.8 µM; in test [4] it was 15.2 µM; in [5], > 58 µM; in [6], 31.3 µM. Moreover, the TGI is 28.4 µM in [7]; 39.3 µM in test [8]; > 42 µM in [9]; 31.8 µM in test [10]; 30.2 µM in test [11]; 37.1 µM in test [12]. The results for the TGI in test [13] and in [14] were 29.4 µM and > 50.9 µM, respectively.
For `NC1CC(=O)c2csc(Br)c21` (stereo not given), the TGI in test [1] was 43.8 µM; in test [2], 36 µM; in test [3], 34.8 µM; in test [4], > 44.2 µM; in [5] it was > 57.9 µM; in test [6], 27.6 µM. Further, the TGI in test [7] is > 59.2 µM; in [8], > 53.6 µM; in [9], 34.2 µM; in [10], > 100 µM; in test [11] it was 30.8 µM; in test [12], 33.2 µM. Moreover, the results for the TGI in test [13] and in test [14] were 24.8 µM and > 50.7 µM, respectively.
Take `CC(=O)Nc1ncc(Sc2ccccc2C(=O)O)s1`: the TGI in [1], in [2], in [3], in test [4], in test [5] and in test [6] was > 100 µM throughout. Moreover, the TGI in test [7], in test [8], in [9], in test [10], in [11] and in [12] was > 100 µM each time. Also, the TGI in test [13] and in test [14] was > 100 µM each time.

(Values after PubChem BioAssay (NCI).)
